Here are results for 10 compounds from PMC9610465, “The Inhibition of α-Glucosidase, α-Amylase and Protein Glycation by Phenolic Extracts of Cotoneaster bullatus, Cotoneaster zabelii, and Cotoneaster integerrimus Leaves and Fruits: Focus on Anti-Hyperglycemic Activity and Kinetic Parameters” (Molecules, 2022).

As a reminder, the IC50 is the concentration that inhibits the measured activity by half. Read a low IC50 as greater potency.

Molecules are shown by their SMILES. Values after ≈ are worked out from the molar mass of the structure shown. A value given as a limit tells only on which side of the number the result lay.

The test system of one data set is α-glucosidase. To be noted: cited from earlier work.
For data set [1], the system named is bovine serum albumin (BSA). Description: Protein glycation inhibitory assay (BSA–fructose model). It is filed as biochemical. The procedure: The ability of the plant extracts/compounds to inhibit fructose-induced protein glycation was determined according to a method previously published with minor modifications. […] Briefly, fructose solution (600 µL) was mixed with BSA (600 µL) and 600 µL tested extracts/compounds at different concentrations and then the reaction mixture was incubated in the capped amber vials in the dark at 37 °C for six days.

The target of data set [2] is T1, Porcine pancreatic α-amylase (Sus scrofa, UniProt P00690).
T1 construct: purchased Sigma-Aldrich
T1 sequence (P00690 16-511): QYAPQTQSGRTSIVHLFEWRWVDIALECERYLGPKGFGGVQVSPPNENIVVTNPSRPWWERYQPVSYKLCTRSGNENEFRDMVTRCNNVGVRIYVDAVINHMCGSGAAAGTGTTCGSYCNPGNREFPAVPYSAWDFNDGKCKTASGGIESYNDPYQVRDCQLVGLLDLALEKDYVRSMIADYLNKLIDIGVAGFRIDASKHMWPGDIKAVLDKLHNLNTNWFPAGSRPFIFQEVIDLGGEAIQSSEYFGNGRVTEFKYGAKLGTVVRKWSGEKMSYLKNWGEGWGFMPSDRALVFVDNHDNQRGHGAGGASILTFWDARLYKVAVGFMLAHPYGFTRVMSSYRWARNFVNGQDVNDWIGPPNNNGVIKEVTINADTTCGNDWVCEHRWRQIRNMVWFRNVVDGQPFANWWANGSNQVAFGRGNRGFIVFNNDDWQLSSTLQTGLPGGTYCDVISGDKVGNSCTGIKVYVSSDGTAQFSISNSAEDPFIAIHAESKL
Put plainly: α-Amylase inhibitory assay (potato starch, DNS). It is filed as biochemical. To be noted: mean ± SD (n = 3).

A further data set deals with α-amylase. To be noted: earlier studies; cited from earlier work.
[3] abbreviates: BSA–fructose model, 37 °C, six days, mean ± SD (n = 3).

With `C[C@@H]1O[C@@H](OC[C@H]2O[C@@H](Oc3c(-c4ccc(O)c(O)c4)oc4cc(O)cc(O)c4c3=O)[C@H](O)[C@@H](O)[C@@H]2O)[C@H](O)[C@H](O)[C@H]1O` [rutin], the “type of α-glucosidase inhibition” value with α-glucosidase is listed as “mixed type”.

Consider `O=C(O)CC(OC(=O)/C=C/c1ccc(O)c(O)c1)C(=O)O` (stereo not shown) [CAD, caffeoylmalic acid], for which, in data set [1] (bovine, 6 days, pH 7.4), the “IC50 Protein Glycation” value was 17.26 ± 1.09 ^B µg/mL. Further, the half-inhibitory concentration (IC50) in data set [2] was above 1350 µM.

As for `O=c1c(O[C@@H]2O[C@H](CO)[C@H](O)[C@H](O)[C@H]2O[C@@H]2OC[C@@H](O)[C@H](O)[C@H]2O)c(-c2ccc(O)c(O)c2)oc2cc(O)cc(O)c12` [QPH, quercetin 3-O-β-D-(2″-O-β-D-xylopyranosyl)galactopyranoside], the “IC50 Protein Glycation” value in data set [1] (setting [3]) is 15.78 ± 1.14 ^A, B µg/mL. The “IC50 α-Amylase” value in data set [2] was above 400 µg/mL.

For the compound `Oc1cc(O)c2c(c1)O[C@H](c1ccc(O)c(O)c1)[C@@H](O)C2` [(+)-catechin], the “type of α-glucosidase inhibition” value in the data set with α-glucosidase is reported as “mixed-type inhibitors”.

As for `C[C@H]1O[C@H](O[C@H]2[C@H](O)[C@@H](O)[C@@H](O[C@H]3[C@H](O)[C@@H](O)C(O)O[C@@H]3CO)O[C@@H]2CO)[C@H](O)[C@@H](O)[C@@H]1N[C@H]1C=C(CO)[C@@H](O)[C@H](O)[C@H]1O` (stereo partly shown) [AR, acarbose], the “type of α-amylase inhibition” value in the data set on α-amylase is listed as “mixed type”. Also, the “type of α-glucosidase inhibition” value in the data set with α-glucosidase is “competitively interacts”.

As to `Oc1cc(O)c2c(c1)O[C@H](c1ccc(O)c(O)c1)[C@H](O)[C@H]2c1c(O)cc(O)c2c1O[C@H](c1ccc(O)c(O)c1)[C@H](O)C2` [PB2, procyanidin B2], the “IC50 Protein Glycation” value in data set [1] (bovine, 6 days, pH 7.4) is listed as 2.20 ± 0.01 ^A µg/mL. In addition, the “type of interaction with α-glucosidase” value in the data set with α-glucosidase is on record as “noncompetitive interaction”. The same compound returned an IC50 in data set [2] above 346 µM.

As for `Oc1cc(O)c2c(c1)O[C@H](c1ccc(O)c(O)c1)[C@H](O)C2` [ECA, (–)-epicatechin], the “IC50 Protein Glycation” value in data set [1] (setting [3]) was 8.79 ± 0.13 ^A, B µg/mL. Also, the “type of α-glucosidase inhibition” value with α-glucosidase is “mixed-type inhibitors”. The IC50 in data set [2] is above 689 µM.

For `O=c1c(O[C@@H]2O[C@H](CO)[C@H](O)[C@H](O)[C@H]2O)c(-c2ccc(O)c(O)c2)oc2cc(O)cc(O)c12` [HP, hyperoside], the “IC50 Protein Glycation” value in data set [1] (setting [3]) is recorded as 14.34 ± 1.15 ^A, B µg/mL. In data set [2], this compound showed an IC50 above 861 µM.

On to `Oc1cc(O)c2c(c1)O[C@H](c1ccc(O)c(O)c1)[C@@H](O)[C@@H]2c1c(O)cc(O)c2c1O[C@H](c1ccc(O)c(O)c1)[C@@H](O)C2` [B3], for which the “type of interaction with α-glucosidase” value with α-glucosidase is given as “noncompetitive interaction”.

Regarding `N=C(N)NN` [AG, aminoguanidine], the “IC50 Protein Glycation” value in data set [1] (setting [3]) is 71.09 ± 4.20 ^D µg/mL; in data set [1] (BSA–fructose model, 37 °C, six days, mean ± SD (n = 3), listed as aminoguanidine) it was 71.1 µg/mL (≈ 960 µM).
